From patent publication US9801901B2, “Alginate oligomers for use in overcoming multidrug resistance in bacteria” (priority 2009, dated 2017)
Converted amounts (≈) assume the structure as drawn. Read-outs that look alike come from different tables or passages of the source. Marks after values point to notes of the source that are not given here.

Tests used:
MDR Pseudomonas strains = assay: MIC assay of Example 1, summary over the MDR Pseudomonas strains; assay type: cell-based, Pseudomonas aeruginosa
V22 6056 Acinetobacter = assay: MIC assay, CAMHB with alginate oligomer, no visible growth; assay type: cell-based, Acinetobacter lwoffii; details: Acinetobacter; Table 5; V22 MDR Acin. lwoff; OligoCF-5/20 0G; read-out: MIC
[1] = test system: Burkholderia cepacia (LMG18941, ATCC-BAA-246); assay: MIC-assay, Mueller-Hinton broth with G-block alginate, 384-well, OD600
[2] = test system: V19 non MDR Acinetobacter baumannii; assay: MIC assay, CAMHB with M-block alginate oligomer, no visible growth; assay type: cell-based; details: Table 7, V19 non MDR Acin. baum
Description: The study described in Example 1 was repeated with the following strains of Acinetobacter baumannii, antibiotics and M-block alginate oligomer in place of OligoG CF-5/20 as detailed in Table 7. The M-block oligomer is 100% M with a DPn of 15 to 18,

[3] = test system: Acinetobacter baumannii (Egypt, V9); assay: MIC-assay, Mueller-Hinton broth with G-block alginate, 384-well, OD600
[4] = test system: PA01 Pseudomonas aeruginosa ATCC 15692; assay: MIC assay, two-fold antibiotic dilutions in CAMHB with alginate oligomer, no visible growth; assay type: cell-based; details: Pseudomonas aeruginosa, ATCC15692, Table 1, PA01, read-out: MIC
[5] = test system: V12 5725 (Wales) Klebsiella pneumoniae; assay: MIC assay, CAMHB with alginate oligomer, no visible growth; assay type: cell-based; details: Table 5, V12 MDR Kleb pneu
[6] = test system: Pseudomonas aeruginosa MDR 301 from Poland (V2); assay: as above; assay type: cell-based; details: Pseudomonas aeruginosa, Table 1, V2 MDR 301 PA, read-out: MIC
[7] = test system: Acinetobacter lwoffii (6056, V22); assay: MIC-assay, Mueller-Hinton broth with G-block alginate, 384-well, OD600
[8] = test system: Acinetobacter lwoffii (Egypt, V10); assay: as above
[9] = test system: Pseudomonas aeruginosa ATCC 39324, mucoid type strain (R79); assay: MIC assay, CAMHB with alginate oligomer, no visible growth; assay type: cell-based; details: Pseudomonas aeruginosa, ATCC39324, Table 1, R79, read-out: MIC
[10] = Table 9, G-block (OligoCF-5/20) 0%
[11] = Table 9, G-block (OligoCF-5/20) 2%
[12] = Table 9, G-block (OligoCF-5/20) 6%
[13] = Table 9, G-block (OligoCF-5/20) 10%

O=C(O)c1cn(C2CC2)c2cc(N3CCNCC3)c(F)cc2c1=O [Ciprofloxacin]
effectiveness when used in combination with the alginate oligomers (MDR Pseudomonas strains): more effective
MIC (V22 6056 Acinetobacter): < 0.25 µg/mL
MIC ([1]; ATCCBAA246|LMG18941, Table 8, G-block (OligoCF-5/20) 0%): > 8 µg/mL
MIC ([1]; ATCCBAA246|LMG18941, Table 8, G-block (OligoCF-5/20) 2%): > 8 µg/mL
MIC ([1]; ATCCBAA246|LMG18941, Table 8, G-block (OligoCF-5/20) 6%): > 8 µg/mL
MIC ([1]; ATCCBAA246|LMG18941, Table 8, G-block (OligoCF-5/20) 10%): > 8 µg/mL
MIC ([2]; M-block oligomer 0M): 64 µg/mL (≈ 193 µM)
MIC ([2]; M-block oligomer +2% M): 32 µg/mL (≈ 96.6 µM)
MIC ([2]; M-block oligomer +6% M): 16 µg/mL (≈ 48.3 µM)
MIC [3, 10]: > 8 µg/mL
MIC [3, 11]: > 8 µg/mL
MIC [3, 12]: 8 µg/mL (≈ 24.1 µM)
MIC [3, 13]: 8 µg/mL (≈ 24.1 µM)
MIC ([4]; OligoCF-5/20 +2% G): 0.0625 µg/mL (≈ 0.189 µM)
MIC ([4]; OligoCF-5/20 +6% G): 0.0625 µg/mL (≈ 0.189 µM)
MIC ([4]; OligoCF-5/20 +10% G): 0.0312 µg/mL (≈ 0.0943 µM)
MIC ([5]; Klebsiella pneumoniae, OligoCF-5/20 0G, read-out: MIC): 64 µg/mL (≈ 193 µM)
MIC ([5]; OligoCF-5/20 +2% G): 64 µg/mL (≈ 193 µM)
MIC ([5]; OligoCF-5/20 +6% G): 256^‡ μg/ml
MIC ([5]; OligoCF-5/20 +10% G): 256^‡ μg/ml
MIC ([6]; OligoCF-5/20 0G): 16 µg/mL (≈ 48.3 µM)
MIC ([6]; OligoCF-5/20 +2% G): 16 µg/mL (≈ 48.3 µM)
MIC ([6]; OligoCF-5/20 +6% G): 8 µg/mL (≈ 24.1 µM)
MIC ([6]; OligoCF-5/20 +10% G): 8 µg/mL (≈ 24.1 µM)
MIC [7, 10]: < 2 µg/mL
MIC [7, 11]: < 2 µg/mL
MIC [7, 12]: < 2 µg/mL
MIC [7, 13]: < 2 µg/mL
MIC [8, 10]: 0.063 µg/mL (≈ 0.19 µM)
MIC [8, 11]: 0.031 µg/mL (≈ 0.0936 µM)
MIC [8, 12]: 0.031 µg/mL (≈ 0.0936 µM)
MIC [8, 13]: 0.031 µg/mL (≈ 0.0936 µM)
MIC ([9]; OligoCF-5/20 +2% G): 0.0625 µg/mL (≈ 0.189 µM)
MIC ([9]; OligoCF-5/20 +6% G): 0.0312 µg/mL (≈ 0.0943 µM)
MIC ([9]; OligoCF-5/20 +10% G): 0.0312 µg/mL (≈ 0.0943 µM)
